One experiment concerns the target T1, human NPS receptor variants (NPS Ile107 and Asn107) (Homo sapiens, UniProt Q6W5P4).
T1 sequence (Q6W5P4 1-371 N107I): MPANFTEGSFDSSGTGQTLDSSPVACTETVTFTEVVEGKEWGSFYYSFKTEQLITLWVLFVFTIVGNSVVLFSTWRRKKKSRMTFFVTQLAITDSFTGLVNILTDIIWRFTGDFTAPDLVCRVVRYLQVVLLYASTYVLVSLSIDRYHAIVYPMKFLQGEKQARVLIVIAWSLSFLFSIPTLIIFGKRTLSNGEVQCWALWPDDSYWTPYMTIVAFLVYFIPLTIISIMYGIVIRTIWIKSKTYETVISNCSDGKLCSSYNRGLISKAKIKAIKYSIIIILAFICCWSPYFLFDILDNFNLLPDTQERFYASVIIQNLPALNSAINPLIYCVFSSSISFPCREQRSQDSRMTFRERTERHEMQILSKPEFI
As to the kind of experiment: Functional determination of EC50 by calcium mobilization in RD-HGA16 CHO cells overexpressing the NPS receptor. The experiment is classed as cell-based. To be noted: FlexStation, mean of at least three independent experiments, receptor variant not given. The text has this: Functional Determinations of EC50: Identification of functional agonists at the NPS receptor was done utilizing RD-HGA16 cells (Molecular Devices), a Chinese Hamster Ovary cell line stably expressing the promiscuous Gq-protein Gα16. RD-HGA16 cells were engineered to stably overexpress the NPS receptor. Two individual cell lines were created that stably express one of two human NPS receptor variants (NPS Ile107 and Asn107). Cells were loaded with a calcium sensitive dye (Molecular Devices) for 1 h at 370 C and compounds were assayed in separate experiments for intrinsic activity as measured by increased fluorescence intensity as a marker of mobilization of internal calcium stores using a FlexStation fluorescence plate reader. Compounds were run as 8-point full log or half log concentration curves in duplicate in order to determine the EC50 of the test compound. Each compound was tested in at least three independent experiments. A three-parameter logistic equation was fit to the concentration response data with Prism Software (v5 for Windows, GraphPad Software; San Diego, Calif.) to calculate the EC50 values. The data represent the mean±SEM from at least three independent experiments. Table 1 lists the EC50 for certain compounds of Formula I or Formula II.
As a reminder, the EC50 is the concentration needed to bring the measured effect to its halfway point. As to `NC(=O)C1C2CCC(CC2)C1NC(=O)CNC(=O)C(CCc1ccccc1)Cc1ccccc1` (centres unmarked) [Compound R06039-691, 3-[2-(2-Benzyl-4-phenylbutanamido)acetamido]bicyclo[2.2.2]octane-2-carboxamide], the EC50 is 93 nM.

With `NC(=O)[C@H]1CCCC[C@@H]1OC(=O)CNC(=O)[C@H](Cc1ccccc1)NC(=O)c1ccccc1` [Compound R06039-636, (1S,2S)-2-carbamoylcyclohexyl-2-[(2S)-3-phenyl-2-(phenylformamido)propanamido]acetate], the EC50 was found to be 94 nM.

Turning to `NC(=O)[C@@H]1CCCC[C@H]1NC(=O)CNC(=O)[C@H](Cc1ccccc1)OCc1ccccc1` [Compound R06039-641, Trans-2-(2-((S)-2-(benzyloxy)-3-phenylpropanamido)acetamido)cyclohexanecarboxamide], the EC50 was 169 nM.

On to `NC(=O)[C@H]1CCCC[C@@H]1NC(=O)CNC(=O)C(Cc1ccccc1)c1ccccc1` (some centres unmarked) [Compound R06039-657, (1R/S,2S/R)-2-(2-(2,3-diphenylpropanamido)acetamido)cyclohexanecarboxamide], for which the EC50 came to 901 nM.

Regarding `NC(=O)[C@H]1CCCC[C@@H]1NC(=O)CNC(=O)/C=C/c1ccccc1` (racemic) [Compound R06039-655, (1R/S,2S/R)-2-(2-cinnamamidoacetamido)cyclohexanecarboxamide], the EC50 was 2110 nM.

On to `NC(=O)[C@@H]1CCCC[C@H]1NC(=O)CNC(=O)/C(=C/c1ccccc1)CCc1ccccc1` (relative stereo) [Compound R06039-675, Trans-2-(2-((E)-2-Benzylidene-4-phenylbutanamido)acetamido)cyclohexanecarboxamide], for which the EC50 was 213 nM.

Regarding `NC(=O)[C@@H]1CCCC[C@H]1NC(=O)CNC(=O)C(CCC1CCCCC1)Cc1ccccc1` (relative stereo) [Compound R06039-682, Trans-2-(2-(2-Benzyl-4-cyclohexylbutanamido)acetamido)cyclohexanecarboxamide], the EC50 is 894 nM.

As to `NCCCC[C@H](NC(=O)C(CCc1ccccc1)Cc1ccccc1)C(=O)NC1CCCCC1C(N)=O` (stereo partly drawn) [Compound R06039-693, 2-[(2S)-6-amino-2-(2-benzyl-4-phenylbutanamido)hexanamido]cyclohexane-1-carboxamide], the EC50 was 77 nM.

In the case of `NC(=O)[C@H]1CCCC[C@@H]1NC(=O)CNC(=O)C(Cc1ccccc1)Cc1ccccc1` (racemic) [Compound R06039-656, (1R/S,2S/R)-2-(2-(2-benzyl-3-phenylpropanamido)acetamido)cyclohexanecarboxamide], the EC50 is 1020 nM.

Take `NCCCC[C@H](NC(=O)C(CCc1ccccc1)Cc1ccccc1)C(=O)NC1C2CCC(CC2)C1C(N)=O` (stereo partly drawn) [Compound R06039-696, 3-[(2S)-6-amino-2-(2-benzyl-4-phenylbutanamido)hexanamido]bicyclo[2.2.2]octane-2-carboxamide]: the EC50 amounted to 91 nM.

A further experiment concerns the target T2, NPSR-C-Alt (Homo sapiens, UniProt Q6W5P4).
T2 sequence (Q6W5P4 1-377 isoform Q6W5P4-4): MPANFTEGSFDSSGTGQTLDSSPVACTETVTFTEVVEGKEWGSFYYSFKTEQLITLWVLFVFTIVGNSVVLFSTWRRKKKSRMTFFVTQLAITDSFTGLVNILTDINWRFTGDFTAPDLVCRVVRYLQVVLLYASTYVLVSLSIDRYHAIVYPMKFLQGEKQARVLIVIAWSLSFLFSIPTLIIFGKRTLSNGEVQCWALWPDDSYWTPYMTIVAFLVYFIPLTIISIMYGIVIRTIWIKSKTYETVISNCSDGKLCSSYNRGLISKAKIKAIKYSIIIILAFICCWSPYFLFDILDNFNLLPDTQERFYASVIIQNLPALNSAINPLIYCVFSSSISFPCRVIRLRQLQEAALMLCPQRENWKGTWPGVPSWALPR
As to the kind of experiment: Functional assay of NPS receptor isoforms. The following applies: least potent at NPSR-C-Alt. The experiment is classed as cell-based. The procedure: The neuropeptide S receptor has at least three known isoforms including the wild type NPS Asn^107, the NPS Asn107Ile and NPS C-Alt. Since each variant could potentially have functional difference, the agonist sensitivity of each isoform was evaluated.
In the case of “hNPS: Human neuropeptide S, 20 residue peptide with the primary sequence SFRNGVGTGMKKTSFQRAKS (SEQ ID NO: 1) (Human)”, the “potency at NPSR-C-Alt, fold lower versus the 107I variant” value came to 30 fold.

These data come from patent US11142546B2, “Neuropeptide S receptor (NPSR) agonists” (Research Triangle Institute, priority 2016, dated 2021).
